Test results reported in ChEMBL document CHEMBL1136382, “Spiro[pyrrolidine-2,2'-adamantanes]: synthesis, anti-influenza virus activity and conformational properties” (Bioorg Med Chem Lett, 2003).

Assays:
MDCK [1] = assay: cells; details: Canis lupus familiaris
MDCK [2] = assay: Minimum cytotoxic concentration required to cause a microscopically detectable alteration of MDCK, Madin-Darby canine kidney cell morphology.; assay type: functional, Canis lupus familiaris
Epithelial cell = assay: Antiviral activity against influenza B (Hong kong/5/72) in human epithelial cells; assay type: functional, cell-based

| SMILES | EC50 (MDCK [1]) | MCC50 (MDCK [2]) | EC50 (Epithelial cell) |
| --- | --- | --- | --- |
| CC1CNC2(C1)C1CC3CC(C1)CC2C3 (stereo not given) | 3.3 µM | 313.6 µM | 1040 µM |
| CC1CN(C)C2(C1)C1CC3CC(C1)CC2C3 (stereo not given) | 3.3 µM | >226 µM | > 746 µM |
| CC1CCC2(N1)C1CC3CC(C1)CC2C3 (stereo not given) | 2.5 µM | >414 µM | > 1040 µM |
| NC12CC3CC(CC(C3)C1)C2 [AMANTADINE] | 1.1 µM | >1211.8 µM | > 1330 µM |
| NC(=O)c1ncn([C@@H]2O[C@H](CO)[C@@H](O)[C@H]2O)n1 [RIBAVIRIN] | 3.7 µM | >276.9 µM | > 1020 µM |
| CC1CCC2(C3CC4CC(C3)CC2C4)N1C (stereo not given) | 2.7 µM | 55.3 µM | 149 µM |
| C1CNC2(C1)C1CC3CC(C1)CC2C3 (stereo not given) | 1.8 µM | >610.5 µM | > 1100 µM |
| CC1CCN(C)C12C1CC3CC(C1)CC2C3 (stereo not given) | 12.5 µM | >60 µM | > 746 µM |
| CC1CCNC12C1CC3CC(C1)CC2C3 (stereo not given) | 3.7 µM | >280 µM | > 1040 µM |
| CN1CCCC12C1CC3CC(C1)CC2C3 (stereo not given) | 2.9 µM | 357 µM | > 1040 µM |
